Literature values in patent US20250387523A1, “COMBINATION THERAPY OF RADIONUCLIDE COMPLEX” (Novartis AG, priority 2021, published 2025).
Like-named read-outs stand apart in the source and are kept apart here.

Columns and labels:
recurrent glioblastoma = details: randomized 2:1
[1] = test system: newly diagnosed glioblastoma; details: newly diagnosed patients; temozolomide added to radiation therapy (radiotherapy alone 12.1 months)
[2] = test system: newly diagnosed glioblastoma

Structure (SMILES): O=NN(CCCl)C(=O)NC1CCCCC1 [lomustine]
- median OS (recurrent glioblastoma): 8.6 months
- median PFS (recurrent glioblastoma): 1.5 months

Structure (SMILES): Cn1nnc2c(C(N)=O)ncn2c1=O [temozolomide, 3,4-Dihydro-3-methyl-4-oxoimidazo[5,1-d][1,2,3,5]tetrazine-8-carboxamide]
- median overall survival [1]: 14.6 months
- median survival ([2]; patients with a methylated MGMT promoter, temozolomide and radiotherapy (radiotherapy only 15.3 months, P=0.007)): 21.7 months
- median survival ([2]; tumors not methylated at the MGMT promoter, temozolomide plus radiotherapy (radiotherapy only 11.8 months, P=0.06)): 12.7 months
- longer median survival with MGMT promoter methylation (glioblastoma; glioblastoma patients treated with temozolomide, MGMT promoter methylation present vs lacking): approximately 50%
- clinical benefit (glioblastoma; patients that lack MGMT promoter methylation): no clinical benefit
